Tested on: harmful plant species
Experiment: Specific trial examples: binary compositions applied by the post-emergence method, synergistic effect according to Colby (Tables 3.1-3.2)
Assay type: in vivo
Procedure, shortened: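 Mono- and dicot weeds grown from seed or rhizome in sandy loam in greenhouse, sprayed post-emergence at three-leaf stage (three weeks after sowing) with formulated binary mixtures at various doses in 300–800 l/ha water. Efficacy rated at stated days after application; synergy judged versus summed single effects and Colby expected values.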

## CONC(=O)C1=C[C@@H](NC(=O)[C@@]2(C)CC(c3cc(F)cc(F)c3)=NO2)CO1 [Compound A5, (5R)-3-(3,5-difluorophenyl)-N-[(3R)-5-(methoxycarbamoyl)-2,3-dihydrofuran-3-yl]-5-methyl-4H-isoxazole-5-carboxamide]
1 g a.i./ha
  Herbicidal action 14 DAT against Lolium rigidum (resistant biotype): 10%
  Herbicidal action 14 DAT against Matricaria inodora: 30%
  Herbicidal action 14 DAT against Viola tricolor: 30%
  Herbicidal action 28 DAT against Centaurea cyanus: 10%
  Herbicidal action 28 DAT against Galium aparine: 30%
  Herbicidal action 28 DAT against Lamium purpureum L.: 40%
  Herbicidal action 28 DAT against Matricaria inodora: 0%
  Herbicidal action 28 DAT against Viola tricolor: 0%
4 g a.i./ha
  Herbicidal action 14 DAT against Lolium rigidum (resistant biotype): 20%
  Herbicidal action 14 DAT against Matricaria inodora: 50%
  Herbicidal action 14 DAT against Viola tricolor: 20%
  Herbicidal action 28 DAT against Centaurea cyanus: 20%
  Herbicidal action 28 DAT against Matricaria inodora: 10%
  Herbicidal action 28 DAT against Phalaris minor: 30%
  Herbicidal action 28 DAT against Viola tricolor: 0%
16 g a.i./ha
  Herbicidal action 14 DAT against Alopecurus myosuroides: 70%
  Herbicidal action 14 DAT against Lolium rigidum: 60%
  Herbicidal action 14 DAT against Lolium rigidum (resistant biotype): 30%
  Herbicidal action 14 DAT against Matricaria inodora: 50%
  Herbicidal action 14 DAT against Poa annua L.: 30%
  Herbicidal action 28 DAT against Alopecurus myosuroides: 40%
  Herbicidal action 28 DAT against Centaurea cyanus: 50%
  Herbicidal action 28 DAT against Lamium purpureum L.: 60%
  Herbicidal action 28 DAT against Matricaria inodora: 20%
  Herbicidal action 28 DAT against Phalaris minor: 40%
  Herbicidal action 28 DAT against Viola tricolor: 10%
(Z119) 14 DAT, g a.i./ha: r682 16, r683 30
  Herbicidal action against Lolium rigidum: 60%
(Z119) 14 DAT, g a.i./ha: r709 4, r710 270
  Herbicidal action against Phalaris minor: 70%
(Z119) 14 DAT, g a.i./ha: r729 4, r730 270
  Herbicidal action against Poa annua L.: 20%
(Z119) 28 DAT, g a.i./ha: r642 16, r643 4, r644 90, r645 30, r646 270
  Herbicidal action against Alopecurus myosuroides: 40%
(Z119) 28 DAT, g a.i./ha: r654 16, r655 30
  Herbicidal action against Centaurea cyanus: 50%
(Z119) 28 DAT, g a.i./ha: r662 1, r663 270
  Herbicidal action against Galium aparine: 30%
(Z119) 28 DAT, g a.i./ha: r690 16, r691 30
  Herbicidal action against Lolium rigidum: 30%
post-emergence, single active compound (A5 series), g a.i./ha: r591 16, r592 4, r593 450, r594 150, r595 50
  Herbicidal action in [%] 28 DAT against Alopecurus myosuroides: 40%
post-emergence, single active compound (A5 series), g a.i./ha: r617 4, r618 450
  Herbicidal action in [%] 28 DAT against Bromus sterilis: 60%
post-emergence, single active compound (A5 series), g a.i./ha: r649 1, r650 150
  Herbicidal action in [%] 14 DAT against Galium aparine: 50%
post-emergence, single active compound (A5 series), g a.i./ha: r659 1, r660 450
  Herbicidal action in [%] 14 DAT against Lamium purpureum L.: 60%
post-emergence, single active compound (A5 series), g a.i./ha: r669 1, r670 450
  Herbicidal action in [%] 28 DAT against Lamium purpureum L.: 40%
post-emergence, single active compound (A5 series), g a.i./ha: r700 16, r701 450, r702 150
  Herbicidal action in [%] 28 DAT against Phalaris minor: 40%
post-emergence, single active compound (A5 series), g a.i./ha: r710 16, r711 450, r712 150, r713 50
  Herbicidal action in [%] 14 DAT against Poa annua L.: 30%
post-emergence, single active compound, g a.i./ha: r679 16, r680 150, r681 50
  Herbicidal action in [%] 28 DAT against Lolium rigidum: 30%
post-emergence, single active compound, g a.i./ha: r689 16, r690 450, r691 150, r692 50
  Herbicidal action in [%] 14 DAT against Lolium rigidum (resistant bio type): 30%
post-emergence, single active compound, g a.i./ha: r721 16, r722 450
  Herbicidal action in [%] 28 DAT against Poa annua L.: 20%

Reference: US20220053762A1, “HERBICIDAL COMPOSITIONS” (Bayer Aktiengesellschaft, priority 2018, published 2022)
